Measured values: ChEMBL document CHEMBL4390706, “Chemical constituents from the seeds of Cassia obtusefolia and their in vitro α-glucosidase inhibitory and antioxidant activities” (Bioorg Med Chem Lett, 2019)
Converted amounts (≈) assume the structure as drawn.

Test: Antioxidant activity assessed as DPPH radical scavenging activity incubated for 30 mins under dark condition
Type: functional

Row | IC50 [µg/mL] | Compound
1 | 78.4 (≈ 288 µM) | COc1cc(O)c2c(O)c3c(=O)oc(C)cc3cc2c1
2 | 6.48 (≈ 36.8 µM) | O=C1O[C@H]([C@@H](O)CO)C(O)=C1O [ASCORBIC ACID]

Row | Compound | IC50 [µg/mL]
3 | COc1cc(O)c2c(O)c3c(=O)cc(C)oc3cc2c1 [RUBROFUSARIN] | 3.03 (≈ 11.1 µM)

Test: Inhibition of baker's yeast alpha-glucosidase using PNPG as substrate preincubated for 15 mins followed by substrate addition and measured after 15 mins
Design: species or system Saccharomyces cerevisiae

Row | IC50 [µg/mL] | Compound
4 | 60.09 (≈ 126 µM) | Cc1cc(O)c2c(c1)C(C1c3cccc(O)c3C(=O)c3c(O)cc(C)cc31)c1cccc(O)c1C2=O (stereo not given)
5 | 183.91 (≈ 585 µM) | COc1ccc2c(c1O)C(=O)c1c(cc(C)c(O)c1OC)C2=O
6 | 80.01 (≈ 294 µM) | COc1cc(O)c2c(O)c3c(=O)oc(C)cc3cc2c1
7 | 120.65 (≈ 365 µM) | COc1c(C)cc2c(c1O)C(=O)c1c(cc(O)c(OC)c1O)C2=O
8 | 164.81 (≈ 460 µM) | COc1cc2c(c(O)c1OC)C(=O)c1c(cc(C)c(OC)c1OC)C2=O
9 | < 5.05 | C[C@H]1O[C@H](O[C@H]2[C@H](O)[C@@H](O)[C@@H](O[C@H]3[C@H](O)[C@@H](O)C(O)O[C@@H]3CO)O[C@@H]2CO)[C@H](O)[C@@H](O)[C@@H]1N[C@H]1C=C(CO)[C@@H](O)[C@H](O)[C@H]1O (stereo not given in full) [ACARBOSE]
10 | 107.81 (≈ 326 µM) | COc1c(O)cc2c(c1O)C(=O)c1c(cc(C)c(O)c1OC)C2=O [AURANTIOOBTUSIN]
11 | 50.6 (≈ 199 µM) | Cc1cc(O)c2c(c1)C(=O)c1cccc(O)c1C2=O [CHRYSOPHANOL]
12 | 144.64 (≈ 509 µM) | COc1c(O)c(C)cc2c1C(=O)c1c(O)cccc1C2=O [OBTUSIFOLIN]
13 | 22.57 (≈ 79.4 µM) | COc1cc(O)c2c(c1)C(=O)c1cc(C)cc(O)c1C2=O [PHYSCION]
14 | 117.94 (≈ 415 µM) | COc1cc(O)cc2c1C(=O)c1c(O)cc(C)cc1C2=O [QUESTIN]

Row | Compound | IC50 [µg/mL]
15 | COc1cc(O)c2c(O)c3c(=O)cc(C)oc3cc2c1 [RUBROFUSARIN] | 162.04 (≈ 595 µM)
